Earlier results, collected in patent US10426749B2, “Safflower oil emulsion as dietary supplement and preparation thereof” (INNOVITAMIN ORGANICS, LLC, priority 2011, dated 2019).

Test system: post-menopausal, obese women with type 2 diabetes
Details: 8 grams daily for 16 weeks

For conjugated linoleic acid [CLA], the “metabolic parameters (trunk fat mass, HDL cholesterol, fasting glucose, insulin sensitivity, C-reactive protein)” value is listed as “did not significantly alter”.
